Measurements as given in article PMC3622673, “Screening Compounds with a Novel High-Throughput ABCB1-Mediated Efflux Assay Identifies Drugs with Known Therapeutic Targets at Risk for Multidrug Resistance Interference” (PLoS ONE, 2013).
pIC50: −log10 of the molar value. Structures can show the parent of a compound that is named as a salt. Where two headings read alike, the source gives them in different places.

Assays:
ABCB1 [1] = target: T1, ABCB1 (Homo sapiens, UniProt P08183); assay: Cell and fluorescent imaging-based ABCB1-mediated efflux assay (IncuCyte FLR) in KB-V1 cells; conditions: for inhibition at 10 µM: human;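 for all read-outs here: ABCB1-overexpressing KB-V1 cells, live-cell fluorescence imaging of retained calcein (from calcein AM) or MitoTracker Green FM, no preincubation with inhibitor, XR9576 as positive control, calcein AM alone as background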
Procedure: (§2) The cell- and fluorescent imaging-based ABCB1-mediated efflux assays were carried out using ABCB1-overexpressing KB-V1 cells and calcein AM. Calcein AM was diluted in the culture media and then added directly to the cells grown in 96- or 384-well plates at the indicated final concentrations. Additionally, MitoTracker® Green FM was used as a fluorescent substrate in the ABCB1-mediated efflux assay. […] There was no incubation time after addition of the ABCB1 inhibitors. The only time delay between the addition of the inhibitors/drugs and the addition of calcein AM was the sample handling time. […] All wells contained 0.1% DMSO; except when the drugs were serial-diluted, in which the wells with the highest drug concentration contained 0.1% DMSO and the rest of wells contained diluted DMSO from the same working stock solution. The cell culture vessels were placed in a fluorescent and phase-contrast live cell imaging system, the IncuCyte^TMFLR (Essen BioScience, Ann Arbor, MI), in a 37°C incubator supplemented with 5% CO2. Both fluorescent and phase-contrast images (750×950 µm) were taken by the IncuCyte^TMFLR at the indicated time intervals. The approximate number of cells scanned was 200–600 cells per image. Auto-fluorescence of the compounds was determined by treating the cells with the drug candidates in the absence of calcein AM and fluorescence was measured using the IncuCyte^TMFLR and a fluorescent plate reader (Infinite 200 PRO, Tecan System, Inc., San Jose, CA).
(§3) The IncuCyte^TMFLR was programmed to take 4 images per well of a 96-well plate or a single image per well of a 384-well plate. It takes 27 minutes to scan an entire 96-well plate at 4 images per well and 27 minutes to scan an entire 384-well plate at one image per well, respectively. Because intracellular accumulation of calcein is time sensitive, only 3 to 6 columns of a 96-well plate were used for a single experiment. Three positive control (XR9576) wells and three background (calcein AM only) wells were included in each 96-well plate or in each column in the 384-well plates. All experiments were repeated at least twice unless otherwise indicated.
(§4) The IncuCyte^TMFLR software provides the mean of the total fluorescence intensity (mean fluorescence intensity), obtained by averaging fluorescent intensities from all the pixels in the image(s) from each well. The automatically generated mean fluorescence intensity is not corrected for the background fluorescence, which can often lead to distorted outputs. Additional software, the Object Counting v2.0 Analysis software provided by the IncuCyte^TMFLR, can assist further quantification and analysis of the fluorescent images. Using this software, a segmentation mask was generated to separate fluorescent (foreground) and non-fluorescent (background) objects so that the sum of the fluorescent intensity of the positive cells can be calculated without the interference from the background fluorescence. The Object Summed Intensity per mm^2 from the metrix menu was chosen to indicate the background corrected fluorescent intensity of each well and designated as the object intensity.
(§5) The relative inhibition of each compound on calcein AM efflux was calculated by the following equation: [drawing 1] where X represents the mean fluorescence intensities or the object intensities, and T denotes the test compound. The final results were normalized to either the maximum values of the test compounds in the dose-response experiments or to the values from XR9576 (0.2 µM) treated cells.

ABCB1 [2] = target: T1, ABCB1; assay: in vitro
Procedure: as §2, §3, §4, §5

ABCB1 [3] = target: T1, ABCB1
Procedure: as §2, §3, §4, §5

ABCB1 [4] = target: T1, ABCB1; assay: Flow cytometry-based ABCB1-mediated efflux assay in KB-V1 cells; conditions: compound 5 µM, calcein AM 1 µM
Procedure: (§6) An ABCB1-mediated calcein AM efflux assay was also performed with KB-V1 cells and evaluated by flow cytometry as described previously [32]. KB-V1 cells were detached by brief trypsin treatment, followed by addition of medium containing 10% serum to neutralize the trypsin. The detached cells were collected by centrifugation, aliquoted at 500,000 cells/tube, and incubated with the test compounds at the indicated concentrations and calcein AM (1 µM) or MitoTracker® Green FM for 10 minutes in a 37°C water bath. After incubation, the cells were collected by centrifugation at 800xg for 5 minutes and resuspended in PBS/0.1% BSA. The fluorescent substrates retained in KB-V1 cells were detected by flow cytometry (BD FACSCalibur, BD Biosciences, Franklin Lakes, NJ). The data were analyzed with FlowJo 7.2.2 (Tree Star, Inc., Ashland, OR) and presented as histograms. […] Total number of cells counted per sample was 10,000.

ABCB1 [5] = target: T1, ABCB1; assay: Photolabeling of ABCB1 with [125I]IAAP; assay type: binding; set-up: made in house; host or cells: Hifive insect cells (crude / plasma membranes); conditions: compound 20 µM, membranes from Hifive cells overexpressing human ABCB1, autoradiograph
Procedure: The interaction of selected compounds with ABCB1 was assessed by an in vitro photolabeling assay as previously described [32].

KB-3-1 cells = assay: Cell imaging-based calcein accumulation in parental KB-3-1 cells; set-up: species or system human; conditions: 1 µM calcein AM, 1 hour, mean fluorescence intensities
Procedure: ABCB1-overexpressing KB-V1 cells, previously selected and maintained with vinblastine (1 µg/ml), and the parental line, KB-3-1 cells, were cultured in DMEM supplemented with 10% FBS [26], [27], [28]. Vinblastine was removed from the KB-V1 cell culture medium 2 to 3 days before each experiment. For the efflux assay, the cells were plated at either 20,000 cells per well in 96-well (100 µl/well) or 2,500 cells per well in 384-well (40 µl/well) flat, clear bottom, white or black-walled polystyrene tissue culture plates (uncoated) (Corning Life Sciences, Tewksbury, MA) and incubated at 37°C. After the cell confluence reached 30–80% (1 to 3 days in culture), the cell and fluorescent imaging-based efflux assays were performed. The ABCB1 overexpressing HCT-15-Pgp cells, used for the cytotoxicity assays, were also cultured in DMEM supplemented with 10% FBS [29]. All cell lines were gifts from Dr. Michael M. Gottesman (NCI, Bethesda, MD).
(§1) Compounds that auto-fluoresced were excluded from further analysis.

KB-V1 cells = assay: Cytotoxicity to KB-V1 cells seen in the imaging assay; assay type: cell-based, human
Source text: as §1

ABCB1 [6] = target: T1, ABCB1; remark: listed apart in the source
Procedure: as §6

[7] = Cell viability assay (CCK-8); conditions: human, HCT-15-Pgp cells
Procedure: HCT-15-Pgp cells were plated and cultured in 96-well plates for 1 or 2 days, until they reached 50–80% confluency. […] Cell viability was examined using the Cell Counting Kit-8 (CCK-8, Dojindo Molecular Technologies, Inc., Rockville, MD); which functions similar to MTT assays by reduction of the tetrazolium salt, WST-8, to yield a yellow-colored and water-soluble formazan dye (measured at 450 nm).

[8] = ABCB1-overexpressing KB-V1 cells, probe calcein AM (1 µM)

T1 sequence (P08183 whole entry): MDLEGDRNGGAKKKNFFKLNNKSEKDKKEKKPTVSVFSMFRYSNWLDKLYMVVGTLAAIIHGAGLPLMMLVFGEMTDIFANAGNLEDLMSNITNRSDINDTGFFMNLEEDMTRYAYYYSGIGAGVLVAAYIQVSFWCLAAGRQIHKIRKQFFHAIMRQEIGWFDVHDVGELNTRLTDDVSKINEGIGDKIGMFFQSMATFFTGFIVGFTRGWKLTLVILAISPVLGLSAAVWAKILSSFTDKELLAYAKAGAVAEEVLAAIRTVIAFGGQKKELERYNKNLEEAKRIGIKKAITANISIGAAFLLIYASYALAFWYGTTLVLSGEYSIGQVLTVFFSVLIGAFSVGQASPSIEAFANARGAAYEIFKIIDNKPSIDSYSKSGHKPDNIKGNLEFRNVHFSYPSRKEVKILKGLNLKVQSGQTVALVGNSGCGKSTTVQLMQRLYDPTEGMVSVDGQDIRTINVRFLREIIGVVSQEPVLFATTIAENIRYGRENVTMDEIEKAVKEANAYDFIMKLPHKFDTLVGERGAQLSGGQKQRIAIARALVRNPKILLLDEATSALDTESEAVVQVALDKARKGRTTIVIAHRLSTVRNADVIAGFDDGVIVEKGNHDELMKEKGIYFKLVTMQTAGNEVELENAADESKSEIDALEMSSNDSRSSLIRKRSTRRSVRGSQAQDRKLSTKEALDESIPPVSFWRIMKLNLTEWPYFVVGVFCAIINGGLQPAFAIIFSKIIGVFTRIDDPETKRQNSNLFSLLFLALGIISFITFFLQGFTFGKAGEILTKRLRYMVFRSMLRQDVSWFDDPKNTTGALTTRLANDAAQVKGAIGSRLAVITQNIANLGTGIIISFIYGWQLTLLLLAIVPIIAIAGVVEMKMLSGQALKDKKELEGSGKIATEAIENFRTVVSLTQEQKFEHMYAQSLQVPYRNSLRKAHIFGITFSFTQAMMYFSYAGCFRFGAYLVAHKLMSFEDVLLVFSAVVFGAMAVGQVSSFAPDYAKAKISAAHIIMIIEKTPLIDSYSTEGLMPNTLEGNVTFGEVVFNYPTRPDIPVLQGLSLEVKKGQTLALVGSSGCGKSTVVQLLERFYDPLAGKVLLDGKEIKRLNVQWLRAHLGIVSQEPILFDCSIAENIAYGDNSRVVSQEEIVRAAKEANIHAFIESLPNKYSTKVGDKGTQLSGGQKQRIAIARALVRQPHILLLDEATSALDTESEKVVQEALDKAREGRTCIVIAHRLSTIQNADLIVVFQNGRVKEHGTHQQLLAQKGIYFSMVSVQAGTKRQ

| inhibition at 10 µM (ABCB1 [1]; [8]) | inhibition at 10 µM (ABCB1 [2]) | SMILES | other results |
| --- | --- | --- | --- |
| ≥ 50% | – | CS(=O)(=O)CCNCc1ccc(-c2ccc3ncnc(Nc4ccc(OCc5cccc(F)c5)c(Cl)c4)c3c2)o1 [Lapatinib Ditosylate] | – |
| – | ≥ 50% | C=CC(=O)Nc1cccc(Oc2nc(Nc3ccc(N4CCN(C)CC4)cc3OC)ncc2Cl)c1 [WZ4002] | – |
| – | ≥ 50% | Cc1ccc(NC(=O)c2ccc(CN3CCN(C)CC3)cc2)cc1Nc1nccc(-c2cccnc2)n1 [Imatinib (STI571), Imatinib] | – |
| ≥ 50% | – | C[C@@H](Oc1cc(-n2cnc3ccc(CN4CCN(C)CC4)cc32)sc1C(N)=O)c1ccccc1C(F)(F)F [GSK461364] | – |
| – | – | O=C(c1ccc(Nc2nccc(-c3cc4ccccc4s3)n2)cc1)N1CCC(N2CCCC2)CC1 [IKK 16] | IC50, inhibition of ABCB1-mediated calcein AM efflux (ABCB1 [3]): cannot be calculated from the data; Inhibition of ABCB1-mediated calcein AM efflux in dose-response experiment (ABCB1 [3]): dose-dependent inhibition; Inhibition of ABCB1-mediated calcein AM efflux, flow cytometry (ABCB1 [4]): inhibited; Competition with [125I]IAAP for direct binding to ABCB1 (ABCB1 [5]): successfully competed |
| – | ≥ 50% | COc1cc(Nc2c(C#N)cnc3cc(OCCCN4CCN(C)CC4)c(OC)cc23)c(Cl)cc1Cl [Bosutinib (SKI-606), Bosutinib] | – |
| ≥ 50% | – | CCOc1cc2ncc(C#N)c(Nc3ccc(F)c(Cl)c3)c2cc1NC(=O)/C=C/CN(C)C [Pelitinib] | – |
| ≥ 50% | – | Cc1ccc(NC(=O)c2ccc(CN3CCN(C)CC3)cc2)cc1Nc1nc(-c2cccnc2)cs1 [Masitinib (AB1010), Masitinib] | – |
| – | ≥ 50% | Cc1cnc(NC(=O)Nc2cc(Br)c(C)cc2OC[C@@H]2CNCCO2)cn1 [LY2603618] | – |
| ≥ 50% | – | CC[C@@H]1C(=O)N(C)c2cnc(Nc3ccc(C(=O)N[C@H]4CC[C@H](N5CCN(CC6CC6)CC5)CC4)cc3OC)nc2N1C(C)C [BI6727] | – |
| – | ≥ 50% | CO[C@H]1C[C@@H]2CC[C@@H](C)[C@@](O)(O2)C(=O)C(=O)N2CCCC[C@H]2C(=O)O[C@H]([C@H](C)C[C@@H]2CC[C@@H](OC(=O)C(C)(CO)CO)[C@H](OC)C2)CC(=O)[C@H](C)/C=C(\C)[C@@H](O)[C@@H](OC)C(=O)[C@H](C)C[C@H](C)/C=C/C=C/C=C/1C [Temsirolimus] | – |
| ≥ 50% | – | CN1CCN(CCOc2cc(OC3CCOCC3)c3c(Nc4c(Cl)ccc5c4OCO5)ncnc3c2)CC1 [AZD0530 (Saracatinib), Saracatinib] | – |
| – | ≥ 50% | O=C(Nc1cccc(Cl)c1)Nc1ncc(CCNc2ncnc3ccsc23)s1 [SNS-314 Mesylate] | – |
| ≥ 50% | – | COc1cc2nccc(Oc3ccc(NC(=O)Nc4cc(C)on4)c(Cl)c3)c2cc1OC [AV-951 (Tivozanib), Tivozanib] | – |
| ≥ 50% | – | CC1(COc2ccc3c(c2)ncn3-c2ccc3cccc(N4CCC(N)CC4)c3n2)COC1 [Crenolanib (CP-868596), Crenolanib] | – |
| – | – | CCC/C=C/C=C/C(=O)O[C@H]1/C(=C/C(=O)OC)C[C@H]2C[C@H]([C@@H](C)O)OC(=O)C[C@H](O)C[C@@H]3C[C@H](OC(C)=O)C(C)(C)[C@](O)(C[C@@H]4C/C(=C/C(=O)OC)C[C@H](/C=C/C(C)(C)[C@]1(O)O2)O4)O3 [bryostatin-1, Bryostatin-1] | Inhibition of ABCB1-mediated calcein AM efflux, flow cytometry (ABCB1 [4]): failed to inhibit; Inhibition of ABCB1-mediated calcein AM efflux in dose-response experiment (ABCB1 [1]; KB-V1 cells, 96-well plates, 1 µM calcein AM): failed to inhibit |

| inhibition at 10 µM (ABCB1 [1]; [8]) | inhibition at 10 µM (ABCB1 [2]) | SMILES | other results |
| --- | --- | --- | --- |
| – | ≥ 50% | COc1cc2ncnc(Nc3ccc(F)c(Cl)c3)c2cc1OCCCN1CCOCC1 [Gefitinib (Iressa), Gefitinib] | – |
| – | ≥ 50% | Cn1c(=O)n(-c2ccc(C(C)(C)C#N)cc2)c2c3cc(-c4cnc5ccccc5c4)ccc3ncc21 [BEZ235] | Inhibition of ABCB1-mediated calcein AM efflux in dose-response experiment (ABCB1 [3]): dose-dependent inhibition; pIC50 (ABCB1 [1]): 4.70 |
| – | ≥ 50% | COc1cc2c(Oc3ccc4[nH]c(C)cc4c3F)ncnc2cc1OCCCN1CCCC1 [Cediranib (AZD2171), Cediranib] | – |
| – | ≥ 50% | CO[C@H]1C[C@@H]2CC[C@@H](C)[C@@](O)(O2)C(=O)C(=O)N2CCCC[C@H]2C(=O)O[C@H]([C@H](C)C[C@@H]2CC[C@@H](O)[C@H](OC)C2)CC(=O)[C@H](C)/C=C(\C)[C@@H](O)[C@@H](OC)C(=O)[C@H](C)C[C@H](C)/C=C/C=C/C=C/1C [Rapamycin (Sirolimus), Rapamycin] | – |
| ≥ 50% | – | CO[C@H]1C[C@@H]2CC[C@@H](C)[C@@](O)(O2)C(=O)C(=O)N2CCCC[C@H]2C(=O)O[C@H]([C@H](C)C[C@@H]2CC[C@@H](OCCO)[C@H](OC)C2)CC(=O)[C@H](C)/C=C(\C)[C@@H](O)[C@@H](OC)C(=O)[C@H](C)C[C@H](C)/C=C/C=C/C=C/1C [Everolimus (RAD001), Everolimus] | – |
| – | ≥ 50% | CO[C@H]1C[C@@H]2CC[C@@H](C)[C@@](O)(O2)C(=O)C(=O)N2CCCC[C@H]2C(=O)O[C@H]([C@H](C)C[C@@H]2CC[C@@H](OP(C)(C)=O)[C@H](OC)C2)CC(=O)[C@H](C)/C=C(\C)[C@@H](O)[C@@H](OC)C(=O)[C@H](C)C[C@H](C)/C=C/C=C/C=C/1C [Deforolimus (MK-8669), Deforolimus] | – |
| – | – | COc1cc2c(cc1OC)CN(CCc1ccc(NC(=O)c3cc(OC)c(OC)cc3NC(=O)c3cnc4ccccc4c3)cc1)CC2 [XR9576, tariquidar] | Effect on fluorescent calcein accumulation (KB-3-1 cells): independent; Concentration cytotoxic to cells (KB-V1 cells; imaging assay (not shown)): > 1000 nM; Inhibition of ABCB1-mediated calcein AM efflux in dose-response experiment (ABCB1 [3]): dose-dependent inhibition; Inhibition of MitoTracker Green FM efflux, cell imaging (ABCB1 [3]; human): inhibition on ABCB1-mediated efflux was detected; Inhibition of MitoTracker Green FM efflux, flow cytometry (ABCB1 [6]): blocked; pIC50 (ABCB1 [1]): 8.14 |
| – | – | CC[C@@H]1C(=O)N(C)c2cnc(Nc3ccc(C(=O)NC4CCN(C)CC4)cc3OC)nc2N1C1CCCC1 [BI 2536] | IC50 at 48 h [7]: 1.28 µM |
| – | ≥ 50% | C=CC(=O)Nc1cc2c(Nc3ccc(F)c(Cl)c3)ncnc2cc1OCCCN1CCOCC1 [CI-1033 (Canertinib), Canertinib] | – |
| – | – | CN(C)C(=O)CCSC(SCCC(=O)O)c1cccc(/C=C/c2ccc3ccc(Cl)cc3n2)c1 (stereo not shown) [MK-571] | Inhibition of ABCB1-mediated calcein AM efflux, flow cytometry (ABCB1 [4]): neither ABCG2 specific inhibitor FTC nor ABCC1 specific inhibitor MK-571 interfered |
| – | – | C[S+](C)[O-] [DMSO, dimethyl sulfoxide] | Concentration toxic to KB-V1 cells (KB-V1 cells; 1 µM calcein AM (data not shown)): ≥ 0.5 % (v/v) |
| ≥ 50% | – | S=C(NCc1ccc2c(c1)OCO2)N1CCN(c2ncnc3c2oc2ccccc23)CC1 [MP-470 (Amuvatinib), Amuvatinib] | – |
| – | ≥ 50% | Cc1cn(-c2cc(NC(=O)c3ccc(C)c(Nc4nccc(-c5cccnc5)n4)c3)cc(C(F)(F)F)c2)cn1 [Nilotinib] | – |
| – | – | CN(C)C/C=C/C(=O)Nc1cc2c(Nc3ccc(F)c(Cl)c3)ncnc2cc1O[C@H]1CCOC1 [BIBW2992 (Tovok)] | inhibition at 10 µM (ABCB1 [1]): ≥ 50% |
| – | – | Cc1ccc(C(=O)N(CCCN)[C@@H](c2nc3cc(Cl)ccc3c(=O)n2Cc2ccccc2)C(C)C)cc1 [ispinesib] | Inhibition of ABCB1-mediated calcein AM efflux in dose-response experiment (ABCB1 [3]): dose-dependent inhibition; Inhibition of ABCB1-mediated calcein AM efflux, flow cytometry (ABCB1 [6]): inhibited; Competition with [125I]IAAP for direct binding to ABCB1 (ABCB1 [5]): marginal effect; pIC50 (ABCB1 [1]): 5.30 |
| – | – | COc1ccc2c3c([nH]c2c1)[C@H](C=C(C)C)N1C(=O)[C@@H]2CCCN2C(=O)[C@@H]1C3 [FTC, fumitremorgin C] | Inhibition of ABCB1-mediated calcein AM efflux, flow cytometry (ABCB1 [4]): neither ABCG2 specific inhibitor FTC nor ABCC1 specific inhibitor MK-571 interfered |
